Here are results for 15 compounds from EP4603105A1, “PHARMACEUTICAL COMPOSITION CONTAINING CYCLIC COMPOUND HAVING SELECTIVE KRAS INHIBITORY EFFECT AGAINST HRAS AND NRAS” (CHUGAI SEIYAKU KABUSHIKI KAISHA, priority 2022, dated 2024).

The target in one experiment is HRAS wild-type protein (Homo sapiens, UniProt P01112). The experiment in a line: Binding to HRAS by surface plasmon resonance (SPR), KD and KD ratio to KRAS. As to conditions: ratio of KD value for HRAS wild-type protein to KD value for KRAS (SPR). The procedure, abridged:
(§1)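 Compound binding is evaluated by SPR single-cycle kinetics, with concentrations added intermittently from low to high for 75 s each. Target surfaces carry GDP-loaded biotinylated Avi-RAS at about 100–300 RU, regenerated after each cycle; temperature 30°C. A 1:1 binding model gives KD.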
For orientation: Surface plasmon resonance follows binding to a sensor surface in real time, without labels.

Experiment [1] has as its system human lung cancer strain NCI-H441. Format: cell-based. A digest of the protocol: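 Proliferation was scored by […] measured after the reagent was added to cultures kept at 37°C in 5% carbon dioxide.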
Experiment [2] has as its target GDP-bound NRAS wild-type protein (Homo sapiens, UniProt P01111). The experiment in a line: Binding to NRAS by surface plasmon resonance (SPR), KD and KD ratio to KRAS. Conditions: ratio of KD value for GDP-bound NRAS wild-type protein to KD value for KRAS (SPR). The procedure, abridged: as §1

GDP-bound NRAS wild-type protein, sequence (P01111 whole entry): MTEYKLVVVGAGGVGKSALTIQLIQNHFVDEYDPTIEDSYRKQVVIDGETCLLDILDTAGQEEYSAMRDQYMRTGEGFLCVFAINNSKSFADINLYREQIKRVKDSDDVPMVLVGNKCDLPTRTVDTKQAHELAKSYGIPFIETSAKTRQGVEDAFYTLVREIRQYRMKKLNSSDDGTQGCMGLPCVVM
HRAS wild-type protein, sequence (P01112 whole entry): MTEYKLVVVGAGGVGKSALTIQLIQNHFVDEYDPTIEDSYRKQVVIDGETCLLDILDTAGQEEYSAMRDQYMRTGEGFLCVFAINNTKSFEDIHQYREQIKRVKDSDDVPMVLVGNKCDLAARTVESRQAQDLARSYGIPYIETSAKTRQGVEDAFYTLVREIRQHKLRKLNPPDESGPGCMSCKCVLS

For `CCC[C@H]1C(=O)N[C@@H]([C@@H](C)CC)C(=O)N(C)CC(=O)N(C)[C@H]2C/C=C\CCN(C2=O)[C@@H](Cc2ccc(C(F)(F)F)cc2)C(=O)N(C)CC(=O)N[C@@H](CCc2cc(F)c(C(F)(F)F)c(F)c2)C(=O)N2C[C@H](OCC)C[C@H]2C(=O)NC2(CC(C)(C)C2)C(=O)N(C)[C@@H](C2CCCC2)C(=O)N(C)[C@H](C(=O)N(C)CC)CC(=O)N1C` [PP1646], on HRAS wild-type protein, the “HRAS /KRAS” value was “A (a compound having 10 or more and less than 20 is denoted as A)”. In experiment [1], the IC50 (in general, the midpoint of a concentration-inhibition curve) stood at 2.8 nM. In addition, the “NRAS /KRAS” value in experiment [2] was “A (a compound having 10 or more and less than 20 is denoted as A)”.
For `CCO[C@@H]1C[C@H]2C(=O)NC3(CC(C)(C)C3)C(=O)N(C)[C@@H](C3CCCC3)C(=O)N(C)[C@H](C(=O)N(C)CC)CC(=O)N(C)[C@@H](CC3CC3)C(=O)N[C@@H]([C@@H](C)CC)C(=O)N(C)CC(=O)N(C)[C@H]3C/C=C\CCN(C3=O)[C@@H](Cc3ccc(C(F)(F)F)cc3)C(=O)N(C)CC(=O)N[C@@H](CCc3cc(F)c(C(F)(F)F)c(F)c3)C(=O)N2C1` [PP1648], the “HRAS /KRAS” value on HRAS wild-type protein was “A (a compound having 10 or more and less than 20 is denoted as A)”. The midpoint of inhibition in experiment [1], the IC50, lay at 2.1 nM. Moreover, the “NRAS /KRAS” value in experiment [2] was “A (a compound having 10 or more and less than 20 is denoted as A)”.
Take `CCCC[C@H]1C(=O)N[C@@H]([C@@H](C)CC)C(=O)N(C)CC(=O)N(C)[C@H]2C/C=C\CCN(C2=O)[C@@H](Cc2ccc(C(F)(F)F)cc2)C(=O)N(C)CC(=O)N[C@@H](CCc2cc(F)c(C(F)(F)F)c(F)c2)C(=O)N2C[C@H](OCC)C[C@H]2C(=O)NC2(CC(C)(C)C2)C(=O)N(C)[C@@H](C2CCCC2)C(=O)N(C)[C@H](C(=O)N(C)C)CC(=O)N1C` [PP1649]: the “HRAS /KRAS” value on HRAS wild-type protein is “B (a compound having 3 or more and less than 10 is denoted as B)”. It took 2.2 nM to reach half-maximal inhibition in experiment [1] (IC50). In addition, the “NRAS /KRAS” value in experiment [2] was “A (a compound having 10 or more and less than 20 is denoted as A)”.
With `CCO[C@@H]1C[C@H]2C(=O)NC3(CC(C)(C)C3)C(=O)N(C)[C@@H](C3CCCC3)C(=O)N(C)[C@H](C(=O)N(C)C)CC(=O)N(C)[C@@H](CC(C)C)C(=O)N[C@@H]([C@@H](C)CC)C(=O)N(C)CC(=O)N(C)[C@H]3C/C=C\CCN(C3=O)[C@@H](Cc3ccc(C(F)(F)F)cc3)C(=O)N(C)CC(=O)N[C@@H](CCc3cc(F)c(C(F)(F)F)c(F)c3)C(=O)N2C1` [PP1650], the “HRAS /KRAS” value on HRAS wild-type protein was “A (a compound having 10 or more and less than 20 is denoted as A)”. Moreover, in experiment [1], the IC50 was found to be 1.2 nM. Besides, the “NRAS /KRAS” value in experiment [2] was “A (a compound having 10 or more and less than 20 is denoted as A)”.
Take `CCO[C@@H]1C[C@H]2C(=O)NC3(CC(C)(C)C3)C(=O)N(C)[C@@H](C3CCCC3)C(=O)N(C)[C@H](C(=O)N(C)C)CC(=O)N(C)[C@@H](CC3CCC3)C(=O)N[C@@H]([C@@H](C)CC)C(=O)N(C)CC(=O)N(C)[C@H]3C/C=C\CCN(C3=O)[C@@H](Cc3ccc(C(F)(F)F)cc3)C(=O)N(C)CC(=O)N[C@@H](CCc3cc(F)c(C(F)(F)F)c(F)c3)C(=O)N2C1` [PP1651]: the “HRAS /KRAS” value at HRAS wild-type protein is “B (a compound having 3 or more and less than 10 is denoted as B)”. In experiment [1], this compound came in with an IC50 of 2.3 nM. The “NRAS /KRAS” value in experiment [2] was “A (a compound having 10 or more and less than 20 is denoted as A)”.
With `CCO[C@@H]1C[C@H]2C(=O)NC3(CC(C)(C)C3)C(=O)N(C)[C@@H](C3CCCC3)C(=O)N(C)[C@H](C(=O)N(C)CC)CC(=O)N(C)[C@@H](CC)C(=O)N[C@@H]([C@@H](C)CC)C(=O)N(C)CC(=O)N(C)[C@H]3C/C=C\CCN(C3=O)[C@@H](Cc3ccc(C(F)(F)F)cc3)C(=O)N(C)CC(=O)N[C@@H](CCc3ccc(C(F)(F)F)c(OC)c3)C(=O)N2C1` [PP1653], on HRAS wild-type protein, the “HRAS /KRAS” value is “A (a compound having 10 or more and less than 20 is denoted as A)”. Moreover, it took 1.6 nM to reach half-maximal inhibition in experiment [1] (IC50). Also, the “NRAS /KRAS” value in experiment [2] is “A (a compound having 10 or more and less than 20 is denoted as A)”.
In the case of `CCO[C@@H]1C[C@H]2C(=O)NC3(CC(C)(C)C3)C(=O)N(C)[C@@H](C3CCCC3)C(=O)N(C)[C@H](C(=O)N(C)CC)CC(=O)N(C)[C@@H](CC(F)F)C(=O)N[C@@H]([C@@H](C)CC)C(=O)N(C)CC(=O)N(C)[C@H]3C/C=C\CCN(C3=O)[C@@H](Cc3ccc(C(F)(F)F)cc3)C(=O)N(C)CC(=O)N[C@@H](CCc3ccc(C(F)(F)F)c(OC)c3)C(=O)N2C1` [PP1655], on HRAS wild-type protein, the “HRAS /KRAS” value was “A (a compound having 10 or more and less than 20 is denoted as A)”. Also, the IC50 in experiment [1] was determined as 1.6 nM. Moreover, the “NRAS /KRAS” value in experiment [2] is “A (a compound having 10 or more and less than 20 is denoted as A)”.
Consider `CCCN(C)C(=O)[C@@H]1CC(=O)N(C)[C@@H](COC)C(=O)N[C@@H]([C@@H](C)CC)C(=O)N(C)CC(=O)N(C)[C@H]2C/C=C\CCN(C2=O)[C@@H](Cc2ccc(C(F)(F)F)cc2)C(=O)N(C)CC(=O)N[C@@H](CCc2ccc(C(F)(F)F)c(OC)c2)C(=O)N2C[C@H](OCC)C[C@H]2C(=O)NC2(CC(C)(C)C2)C(=O)N(C)[C@@H](C2CCCC2)C(=O)N1C` [PP1656], for which, at HRAS wild-type protein, the “HRAS /KRAS” value was “A (a compound having 10 or more and less than 20 is denoted as A)”. The compound also came in with a half-inhibitory concentration (IC50) in experiment [1] of 1.5 nM. Moreover, the “NRAS /KRAS” value in experiment [2] is “AA (a compound having 20 or more is denoted as AA)”.
On to `CCCOC[C@H]1C(=O)N[C@@H]([C@@H](C)CC)C(=O)N(C)CC(=O)N(C)[C@H]2C/C=C\CCN(C2=O)[C@@H](Cc2ccc(C(F)(F)F)cc2)C(=O)N(C)CC(=O)N[C@@H](CCc2ccc(C(F)(F)F)c(OC)c2)C(=O)N2C[C@H](OCC)C[C@H]2C(=O)NC2(CC(C)(C)C2)C(=O)N(C)[C@@H](C2CCCC2)C(=O)N(C)[C@H](C(=O)N(C)C)CC(=O)N1C` [PP1657], for which the “HRAS /KRAS” value at HRAS wild-type protein was “B (a compound having 3 or more and less than 10 is denoted as B)”. Further, the IC50 in experiment [1] was found to be 2 nM. The “NRAS /KRAS” value in experiment [2] was “A (a compound having 10 or more and less than 20 is denoted as A)”.
In the case of `CC[C@H](C)[C@@H]1NC(=O)[C@H](CC(F)F)N(C)C(=O)C[C@@H](C(=O)N(C)C)N(C)C(=O)[C@H](C2CCCC2)N(C)C(=O)C2(CC(C)(C)C2)NC(=O)[C@@H]2C[C@H](C)CN2C(=O)[C@H](CCc2cc(F)c(C(F)(F)F)c(F)c2)NC(=O)CN(C)C(=O)[C@H](Cc2ccc(C(F)(F)F)cc2)N2CC/C=C\C[C@@H](C2=O)N(C)C(=O)CN(C)C1=O` [PP1658], the “HRAS /KRAS” value on HRAS wild-type protein was “A (a compound having 10 or more and less than 20 is denoted as A)”. For the same compound, the IC50 in experiment [1] stood at 3.8 nM. In addition, the “NRAS /KRAS” value in experiment [2] was “A (a compound having 10 or more and less than 20 is denoted as A)”.
For `CCCC[C@H]1C(=O)N[C@@H]([C@@H](C)CC)C(=O)N(C)CC(=O)N(C)[C@H]2C/C=C\CCN(C2=O)[C@@H](Cc2ccc(C(F)(F)F)cc2)C(=O)N(C)CC(=O)N[C@@H](CCc2cc(F)c(C(F)(F)F)c(F)c2)C(=O)N2C[C@@H](C)C[C@H]2C(=O)NC2(CC(C)(C)C2)C(=O)N(C)[C@@H](C2CCCC2)C(=O)N(C)[C@H](C(=O)N(C)C)CC(=O)N1C` [PP1661], the “HRAS /KRAS” value at HRAS wild-type protein is “A (a compound having 10 or more and less than 20 is denoted as A)”. Moreover, half-maximal inhibition in experiment [1] (IC50) required 5.7 nM. For the same compound, the “NRAS /KRAS” value in experiment [2] was “A (a compound having 10 or more and less than 20 is denoted as A)”.
With `CC[C@H](C)[C@@H]1NC(=O)[C@H](CC(C)C)N(C)C(=O)C[C@@H](C(=O)N(C)C)N(C)C(=O)[C@H](C2CCCC2)N(C)C(=O)C2(CC(C)(C)C2)NC(=O)[C@@H]2C[C@H](C)CN2C(=O)[C@H](CCc2cc(F)c(C(F)(F)F)c(F)c2)NC(=O)CN(C)C(=O)[C@H](Cc2ccc(C(F)(F)F)cc2)N2CC/C=C\C[C@@H](C2=O)N(C)C(=O)CN(C)C1=O` [PP1662], the “HRAS /KRAS” value on HRAS wild-type protein was “B (a compound having 3 or more and less than 10 is denoted as B)”. In experiment [1], the IC50 was 6.4 nM. For the same compound, the “NRAS /KRAS” value in experiment [2] is “A (a compound having 10 or more and less than 20 is denoted as A)”.
Consider `CCCN(C)C(=O)[C@@H]1CC(=O)N(C)[C@@H](C)C(=O)N[C@@H]([C@@H](C)CC)C(=O)N(C)CC(=O)N(C)[C@H]2C/C=C\CCN(C2=O)[C@@H](Cc2ccc(C(F)(F)F)cc2)C(=O)N(C)CC(=O)N[C@@H](CCc2cc(F)c(C(F)(F)F)c(F)c2)C(=O)N2C[C@H](F)C[C@H]2C(=O)NC2(CC(C)(C)C2)C(=O)N(C)[C@@H](C2CCCC2)C(=O)N1C` [PP1663], for which the “HRAS /KRAS” value on HRAS wild-type protein is “A (a compound having 10 or more and less than 20 is denoted as A)”. The midpoint of inhibition in experiment [1], the IC50, lay at 3.6 nM. In addition, the “NRAS /KRAS” value in experiment [2] is listed as “AA (a compound having 20 or more is denoted as AA)”.
For `CCCN(C)C(=O)[C@@H]1CC(=O)N(C)[C@@H](CC2CC2)C(=O)N[C@@H]([C@@H](C)CC)C(=O)N(C)CC(=O)N(C)[C@H]2C/C=C\CCN(C2=O)[C@@H](Cc2ccc(C(F)(F)F)cc2)C(=O)N(C)CC(=O)N[C@@H](CCc2cc(F)c(C(F)(F)F)c(F)c2)C(=O)N2C[C@H](F)C[C@H]2C(=O)NC2(CC(C)(C)C2)C(=O)N(C)[C@@H](C2CCCC2)C(=O)N1C` [PP1665], at HRAS wild-type protein, the “HRAS /KRAS” value was “A (a compound having 10 or more and less than 20 is denoted as A)”. In experiment [1], half-maximal inhibition (IC50) required 3.1 nM. Further, in experiment [2], the “NRAS /KRAS” value is “AA (a compound having 20 or more is denoted as AA)”.
`CCCN(C)C(=O)[C@@H]1CC(=O)N(C)[C@@H](C)C(=O)N[C@@H]([C@@H](C)CC)C(=O)N(C)CC(=O)N(C)[C@H]2C/C=C\CCN(C2=O)[C@@H](Cc2ccc(C(F)(F)F)cc2)C(=O)N(C)CC(=O)N[C@@H](CCc2cc(F)c(C(F)(F)F)c(F)c2)C(=O)N2C[C@H](OCC)C[C@H]2C(=O)NC2(CCC2)C(=O)N(C)[C@@H](C2CCCC2)C(=O)N1C` [PP1666]: the “HRAS /KRAS” value on HRAS wild-type protein was “A (a compound having 10 or more and less than 20 is denoted as A)”. In experiment [1], 8.1 nM corresponded to half-maximal inhibition (IC50). Also, the “NRAS /KRAS” value in experiment [2] was “A (a compound having 10 or more and less than 20 is denoted as A)”.
